Measurements published in US7169815B2, “3-methoxybenzyl thiourea derivatives and improved lipid compositions containing same” (The United States of America as represented by the …, priority 2000, dated 2007).
≈ marks a conversion by molar mass, not a printed value. Where two headings read alike, the source gives them in different places.

Assays:
[1] = in vivo; details: Artemia salina (brine shrimp), in vivo; for LC50 at 24 h: other: exposure in seawater in microplate wells
Method: (§1) Brine shrimp eggs (Artemia salina) were obtained from Brine Shrimp Direct, Ogden, Utah and stored at 10° C. until used. Eggs (400 mg) were added to 1 l of deionized water containing 40 g of sea salts (Sigma Chemical Co., St. Louis, Mo.).
(§2) Serial dilutions were performed in 100 μl of seawater in triplicate in the wells of a 96-well microplate to give appropriate concentrations. Control wells for both water and DMSO were included with each experiment. […] The number of non-motile, and the total number of, naupli were counted in each well using a binocular microscope (10×).

[2] = Oxidative Stability Index (OSI) of refined meadowfoam seed oil plus additives
From the text: A presently preferred method of determining oxidative stability of lipids and oils employs the Oxidative Stability Index (OSI), which determines the oxidative stability of an oil by passing air through a sample under stringent temperature control. (Firestone, Oxidative Stability Index (OSI): Official Methods of Recommended Practices of the American Oil Chemists' Society (AOCS), 4th Ed. American Oil Chemists Society, Champaign, Ill., AOCS Official Method Cd 12b-92, 1993.) In this method, a stream of air is passed through the oil sample, which aids in the rapid degradation of the triglyceride into volatile organic acids. The air stream flushes the volatile acids from the oil into a conductivity cell containing water where the acids are solubilized. These acids, once dissolved in the water solution, disassociate into ions, thus changing the conductivity of the water. Therefore, a continuous measure of the conductivity of the cell by computer will indicate when a rapid rise in the conductivity occurs that corresponds to the induction point, oxidative failure of the sample. The time to the induction point is the OSI time. […] Saturated fatty acid methyl ester (FAME) standards commercially available from Alltech Associates (Deerfield, Ill.) may be used to calibrate the OSI determinations.
OSI determinations may be performed on an oxidative stability instrument manufactured by Omnion (Rockland, Mass.) using the AOCS method described in the above-disclosed Firestone reference. Lipid or oil samples may be run at 110° C. and FAMEs may be tested at 90° C., with air flow set at 35 kPa with a resulting velocity of about 140 ml/min. A presently preferred method for determining OSI values is described by T. A. Isbell et al., “Oxidative Stability Index of Vegetable Oils in Binary Mixtures with Meadowfoam Oil,” Industrial Crops and Products 9, 115–123 (1999).
Unless otherwise stated, Oxidative Stability Index (OSI) values were determined on 5.00 ±0.05 g lipid or oil samples in triplicate according to AOCS Official Method Cd 12b-92 (AOCS, 1993) at 90° C., 110° C. and/or 130° C. on an oxidative stability instrument manufactured by Omnion (Rockland, Mass.). Details of the procedure have been published by Isbell et al., “Oxidative Stability Index of Vegetable Oils in Binary Mixtures with Meadowfoam Oil,” Ind. Crops Prod. 9, 115–123 (1999). When compounds of the present invention were added to the lipid or oil sample being tested, the compounds (0.1% to 1.0% by weight) were added to the test lipid or oil (20 g) and dissolved or dispersed at room temperature before triplicate 5.00 g samples of lipid or oil with an added compound of the invention were weighed into the OSI test tube.
The 1,3-di(3-methoxybenzyl) thiourea prepared in Example 3 was mixed at 0.1%, 0.5% or 1.0% with refined meadowfoam seed oil (Lot #CW-4551, The Fanning Corp) and the oxidative stability of the mixtures was compared to that of refined meadowfoam seed oil at 130° C. The OSI times were 49.8 h, 159 h and 172 h, respectively, for the mixtures containing the thiourea compared to an OSI time of 14.9 h for this lot of refined meadowfoam seed oil with no additives at 130° C.
Thus, 1,3-bis(2-methoxyphenyl)-2-thiourea (Aldrich Chem Co.) added at 0. […] Likewise, 1,3-bis(3-methoxyphenyl)-2-thiourea at 0. 1% added to refined meadowfoam oil gave an OSI time of 27.0 h, an […] lower value than for the 1,3-di-(3-methoxybenzyl) thiourea produced in Example 3.

[3] = Oxidative Stability by Rotating Pressure Vessel (RBOT) of refined meadowfoam seed oil plus thiourea compounds; details: for Oxidative Stability (RBOT): Refined Meadowfoam Seed Oil plus 0.1% compound
From the text: Another presently preferred method of determining oxidative stability of lipids and oils employs the Oxidative Stability by Rotating Pressure Vessel (RBOT) test. In this test, oxidative stability, determined according to the ASTM D2272-98 test method (ASTM, 2001, “Standard Test Method for Oxidation Stability of Steam Turbine Oils by Rotating Pressure Vessel,” in Book of Standards, Vol. 05.01., American Society for Testing and Materials, West Conshohocken, Pa.), measures the time for oxygen pressure to decrease in a closed stainless steel vessel containing a lipid or oil when heated with a copper coil catalyst. Oxygen taken up by the lipid or oil during the reaction is an indication of oil degradation.
In these experiments, Oxidative Stability by Rotating Pressure Vessel (RBOT) tests were performed with different 3-methoxybenzyl thiourea compounds synthesized in Example 3 that were mixed in different quantities with different mono- and polyunsaturated vegetable oils. Hexane was used to clean and store the copper coils, but all other aspects of the Oxidative Stability by Rotating Pressure Vessel (RBOT) test were the same as in the standard ASTM D2272–98 test method (ASTM, 2001, “Standard Test Method for Oxidation Stability of Steam Turbine Oils by Rotating Pressure Vessel,” in Book of Standards, Vol. 05.01., American Society for Testing and Materials, West Conshohocken, Pa.).

[4] = UVB and UVA molar absorptivities in chloroform; type: physicochemical; details: 0.01 mg/ml in chloroform; for UVBMAX Molar Absorptivity: Amax in 280–320 nm; for UVAMAX Molar Absorptivity: Amax in 320–400 nm
Method: The compounds synthesized in Example 3 were tested to determine their ability to absorb […] UVA light. UV spectra of quantitatively weighed and diluted samples (0.01 mg/ml) in chloroform were scanned from 244–450 nm at 240 nm/min on a Beckman DU 640 spectrophotometer (Beckman Coulter, Inc., Fullerton, Calif.). Amax in the 280–320 nm range was determined and converted to molar absorptivity for the UVB region, and Amax in the 320–400 nm range was determined and converted to molar absorptivity for the UVA region.

[5] = Solubility in refined meadowfoam seed oil (HPLC); type: physicochemical; details: oil or lipid, thermodynamic from solid, cooled to room temperature overnight
Method: Typical retention times were 7–9 min for the thioureas. Samples were weighed accurately (about 0.1 g) into 1.00 g of refined meadowfoam seed oil and heated to temperature (either 30° C. or 50° C.) for 4 h with occasional shaking. The samples were cooled to room temperature overnight, centrifuged and 0.3 g of the supernatant oil was removed and diluted with 1 ml CHCl3 for testing.

[6] = Decomposition temperature by differential scanning calorimetry; type: physicochemical; details: DSC, onset of decrease in slope of temperature-heat flow curve; unit not given (scans in ° C.)
Method: A dual cell Perkin Elmer differential scanning calorimeter (PE DSC 7, Norwalk, Conn.) was used to determine the thermal transitions of the compounds. All scans were carried out from 30° C. to 200° C. at a heating and cooling rate of 10° C./minute and 40° C./min, respectively, except for 1-(3-methoxybenzyl)-3-(1-propenyl) thiourea, for which the scans were carried out from 0° C. to 200° C. at a heating rate of 10° C./min, and 1-(3-methoxybenzyl)-3-octadecyl thiourea, for which both the heating and cooling rates were 10° C./min. 1,3-di(3-methoxybenzyl) thiourea and 1-(3-methoxybenzyl)-3-dodecyl thiourea were heated to 300° C., and 1-(3-methoxybenzyl)-3-(4-methoxybenzoyl) thiourea was heated to 250° C. to determine the decomposition temperature. The decomposition temperature was taken as the onset of a decrease in the slope of the temperature-heat flow DSC curve. The first heating curve was recorded in all cases, and liquid nitrogen was used to quench the samples after the first heating.

[7] = test system: Brine Shrimp (Artemia Salina); experiment: in vivo; details: for LC50: in vivo; for toxicity against brine shrimp, in words: as Table 7 shows
Method: as §1, §2

[8] = Behaviour on addition of water to DMSO solution (sample preparation); type: physicochemical; details: dissolved in 50 μl DMSO, water added to make 1 mg/ml
Method: Test compounds (1–2 mg) were originally made up at a concentration of 1 mg/ml in artificial seawater, except for water insoluble compounds, which were dissolved in 50 μl of dimethyl sulfoxide (DMSO) prior to adding enough water to make a 1 mg/ml solution. Serial dilutions were performed in 100 μl of seawater in triplicate in the wells of a 96-well microplate to give appropriate concentrations. Control wells for both water and DMSO were included with each experiment. A 100 μl solution of naupli (10–30) was added to each well, and the covered plate was incubated for 24 h at 27° C. The number of non-motile, and the total number of, naupli were counted in each well using a binocular microscope (10×). LC50 values were then calculated by Probit analysis (Finney, D. J., 1971, “Probit Analysis,” 3rd Ed.; University Press: Cambridge [Eng.]).

[9] = refined meadowfoam oil, 0.1% additive, 130° C.
[10] = refined meadowfoam oil, 0.1% additive, 130° C. (Example 8)
[11] = heated to 30° C. for 4 h, read-out: Solubility at 30° C.
[12] = heated to 50° C. for 4 h, read-out: Solubility at 50° C.
[13] = refined meadowfoam seed oil plus additive 0.1%, 130° C.
[14] = refined meadowfoam seed oil plus additive 0.5%, 130° C.
[15] = refined meadowfoam seed oil plus additive 1.0%, 130° C.

SMILES | LC50 at 24 h [1] [µg/mL] | Oxidative Stability (RBOT) [3] [min] | UVBMAX Molar Absorptivity [4] | UVAMAX Molar Absorptivity [4] | solubility at 4 h [5, 11] [µg/mL] | solubility at 4 h [5, 12] [µg/mL] | Decomposition Temperature [6] [°C] | other results
O=C1O[C@H]([C@@H](O)CO)C(O)=C1O [ascorbic acid, reference compound] | 315 (≈ 1790 µM) |  |  |  |  |  |  | 
COc1ccccc1NC(=S)Nc1ccccc1OC [1,3-bis(2-methoxyphenyl)-2-thiourea] |  |  |  |  |  |  |  | OSI time lower than for 1,3-di-(3-methoxybenzyl) thiourea [2, 9]: 34%; OSI Time [2, 10]: 37.1 h
COc1ccc(C(=O)NC(=S)NCc2cccc(OC)c2)cc1 [1-(3-methoxybenzyl)-3-(4-methoxybenzoyl) thiourea] | 58 (≈ 176 µM) | 24 | 34090 | 1420 | 2760 (≈ 8350 µM) | 1930 (≈ 5830 µM) | > 200 | 
Cc1c(C)c2c(c(C)c1O)CC[C@@](C)(CCC[C@H](C)CCC[C@H](C)CCCC(C)C)O2 [D-α-tocopherol, reference compound] |  |  |  |  |  |  |  | LC50 [7]: >1000 µg/mL
COc1cccc(CC#N)c1 [3-methoxyphenyl acetonitrile] |  |  |  |  |  |  |  | OSI Time [2, 13]: 18.6 h; OSI Time [2, 14]: 19.2 h; OSI Time [2, 15]: 19.9 h
CCCCCCCCCCCCNC(=S)NCc1cccc(OC)c1 [1-(3-methoxybenzyl)-3-dodecyl thiourea] | 3.8 (≈ 10.4 µM) | 41 | 2625 | 0.0 | 1040 (≈ 2860 µM) | 909 (≈ 2490 µM) | 273 | Oxidative stability in the RBOT test, in words ([3]; addition of 0.1% compound): doubled; toxicity against brine shrimp, in words [7]: high enough to consider its use in therapeutic tests for killing cancer cells; behaviour upon the addition of water [8]: precipitated out of solution
C=CCNC(=S)NCc1cccc(OC)c1 |  | 24 | 2852 | 0.0 | 1670 (≈ 7070 µM) | 981 (≈ 4150 µM) | > 200 | LC50 [1]: 232 µg/mL (≈ 982 µM); toxicity against brine shrimp, in words [7]: low toxicity
CCCCCCCCCCCCCCCCCCNC(=S)NCc1cccc(OC)c1 [1-(3-methoxybenzyl)-3-octadecyl thiourea] | 62.5 (≈ 139 µM) | 15 | 850 | 0.0 | 280 (≈ 624 µM) | 147 (≈ 328 µM) | > 200 | behaviour upon the addition of water [8]: precipitated out of solution
COc1cccc(NC(=S)Nc2cccc(OC)c2)c1 [1,3-bis(3-methoxyphenyl)-2-thiourea] |  |  |  |  |  |  |  | OSI time lower than for 1,3-di-(3-methoxybenzyl) thiourea [2, 9]: 84%; OSI Time [2, 10]: 27.0 h
COc1cccc(CN)c1 [3-methoxybenzyl amine] |  |  |  |  |  |  |  | OSI Time [2, 13]: 22.9 h; OSI Time [2, 14]: 27.3 h; OSI Time [2, 15]: 32.6 h
COc1cccc(CN=C=S)c1 [3-methoxybenzyl isothiocyanate] |  |  |  |  |  |  |  | OSI Time [2, 13]: 19.1 h; OSI Time [2, 14]: 22.9 h; OSI Time [2, 15]: 24.0 h
COc1cccc(C=O)c1 [3-methoxybenzaldehyde] |  |  |  |  |  |  |  | OSI Time [2, 13]: 17.5 h; OSI Time [2, 14]: 17.4 h; OSI Time [2, 15]: 18.9 h
COc1cccc(CNC(=S)NCc2ccccc2)c1 [1-(3-methoxybenzyl)-3-benzyl thiourea] | 31.6 (≈ 110 µM) | 26 | 2357 | 0.0 | 1050 (≈ 3670 µM) | 1040 (≈ 3620 µM) | > 200 | 
COc1ccc(O)c(C(C)(C)C)c1 [butylated hydroxy aniline (BHA), butylated hydroxy aniline, reference compound] |  |  |  |  |  |  |  | LC50 [7]: 12.2 µg/mL (≈ 67.7 µM)
O=C(O)/C=C/c1ccccc1 [trans-cinnamic acid, reference compound] |  |  | 22350 | 54 |  |  |  | 
